tested on: wildtype Wnt signaling cascade; assay: HEK293 TOP assay (Super TopFlash luciferase reporter, Wnt-3a stimulated); assay type: cell-based; settings: HEK293 TOP reporter cells, Wnt3a at EC50, 16 hours
Outline: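 Compound series (50 μM down to 15 nM, 3.16-fold) diluted from DMSO 50-fold into CAFTY buffer, pH 7.4, 2 mM Ca^2+, 0.01% BSA, applied to Wnt-3a-stimulated HEK293 TopFlash and FOP reporter lines in parallel. Cells seeded 10000/well 24 h before; luciferase signal measured.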

SMILES	IC50 [nM]
Cc1c(C(C)N(C)C)cnc2c(C(=O)N[C@H]3CC[C@H](C(=O)Nc4ccc(F)cc4Cl)CC3)cnn12 (single isomer, unassigned) [Example 56, N-{trans-4-[(2-chloro-4-fluorophenyl)carbamoyl]cyclohexyl}-6-[1-(dimethylamino)ethyl]-7-methylpyrazolo[1,5-a]pyrimidine-3-carboxamide]	990
CNC(=O)c1[nH]cnc1C(=O)NC1CCC(C(=O)Nc2ccc(F)cc2Cl)CC1OC (stereo not drawn) [Example 37, N^4-{(1α,2β,4β)-4-[(2-chloro-4-fluorophenyl)carbamoyl]-2-methoxycyclohexyl}-N^5-methyl-1H-imidazole-4,5-dicarboxamide]	43000

same assay, conditions: Homo sapiens, HEK293, 16 h, HEK293 TOP reporter cells, Wnt3a at EC50, 16 hours

IC50 [nM]	SMILES
5000	Cc1cnc2c(C(=O)N[C@H]3CC[C@@]4(CCN(c5ccc(F)cc5Cl)C4=O)CC3)cnn2c1 [Example 137, N-[(trans)-2-(2-chloro-4-fluorophenyl)-1-oxo-2-azaspiro[4.5]dec-8-yl]-6-methylpyrazolo[1,5-a]pyrimidine-3-carboxamide]
140	O=C(NC12CCC(C(=O)Nc3cnccc3Cl)(CC1)CC2)c1cnn2cccnc12 [Example 120, N-{4-[(4-chloropyridin-3-yl)carbamoyl]bicyclo[2.2.2]oct-1-yl}pyrazolo[1,5-a]pyrimidine-3-carboxamide]
410	O=C(NCC1CCCO1)c1nc[nH]c1C(=O)N[C@H]1CC[C@H](C(=O)Nc2cc(F)ccc2Cl)CC1 (stereo partly drawn) [Example 129, N^5-{trans-4-[(2-chloro-5-fluorophenyl)carbamoyl]cyclohexyl}-N^4-(tetrahydrofuran-2-ylmethyl)-1H-imidazole-4,5-dicarboxamide]
660	O=C(NC12CCC(C(=O)Nc3c(F)cc(F)cc3Cl)(CC1)CC2)c1cnc2cccnn12 [Example 123, N-{4-[(2-chloro-4,6-difluorophenyl)carbamoyl]bicyclo[2.2.2]oct-1-yl}imidazo[1,2-b]pyridazine-3-carboxamide]
390	O=C(NC12CCC(C(=O)Nc3c(F)cc(F)cc3Cl)(CC1)CC2)c1cnn2cccnc12 [Example 119, N-{4-[(2-chloro-4,6-difluorophenyl)carbamoyl]bicyclo[2.2.2]oct-1-yl}pyrazolo[1,5-a]pyrimidine-3-carboxamide]
130	CCN(c1ccc(F)cc1Cl)C(=O)[C@H]1CC[C@H](NC(=O)c2cnn3cccnc23)CC1 [Example 154, N-{trans-4-[(2-chloro-4-fluorophenyl)(ethyl)carbamoyl]cyclohexyl}pyrazolo[1,5-a]pyrimidine-3-carboxamide]
51	O=C(N[C@H]1CC[C@H](C(=O)Nc2cc(F)c(F)cc2Cl)CC1)c1cnc2cccnn12 [Example 132, N-{trans-4-[(2-chloro-4,5-difluorophenyl)carbamoyl]cyclohexyl}imidazo[1,2-b]pyridazine-3-carboxamide]
30	O=C(NC12CCC(C(=O)Nc3ccc(F)cc3Cl)(CC1)CC2)c1cnc2cccnn12 [Example 121, N-{4-[(2-chloro-4-fluorophenyl)carbamoyl]bicyclo[2.2.2]oct-1-yl}imidazo[1,2-b]pyridazine-3-carboxamide]
220	Cc1cc(C)n2ncc(C(=O)NC34CCC(C(=O)Nc5c(F)cc(F)cc5Cl)(CC3)CC4)c2n1 [Example 127, N-{4-[(2-chloro-4,6-difluorophenyl)carbamoyl]bicyclo[2.2.2]oct-1-yl}-5,7-dimethylpyrazolo[1,5-a]pyrimidine-3-carboxamide]
1.8	CCNC(=O)c1[nH]cnc1C(=O)N[C@H]1CC[C@@]2(CCN(c3ccc(F)cc3Cl)C2=O)CC1 [Example 141, N^4-[(trans)-2-(2-chloro-4-fluorophenyl)-1-oxo-2-azaspiro[4.5]dec-8-yl]-N^5-ethyl-1H-imidazole-4,5-dicarboxamide]
3.8	O=C(NC1CC1)c1nc[nH]c1C(=O)N[C@H]1CC[C@@]2(CCN(c3ccc(F)cc3Cl)C2=O)CC1 [Example 165, N^5-[(trans)-2-(2-chloro-4-fluorophenyl)-1-oxo-2-azaspiro[4.5]dec-8-yl]-N^4-cyclopropyl-1H-imidazole-4,5-dicarboxamide]
68	CNC(=O)c1nc[nH]c1C(=O)N[C@H]1CC[C@H](C(=O)Nc2cc(C(F)(F)F)ccc2Cl)CC1 [Example 142, N^5-(trans-4-{[2-chloro-5-(trifluoromethyl)phenyl]carbamoyl}cyclohexyl)-N^4-methyl-1H-imidazole-4,5-dicarboxamide]
13	CC1CCN(CCNC(=O)c2nc[nH]c2C(=O)N[C@H]2CC[C@@]3(CCN(c4ccc(F)cc4Cl)C3=O)CC2)CC1 [Example 160, N^5-[(trans)-2-(2-chloro-4-fluorophenyl)-1-oxo-2-azaspiro[4.5]dec-8-yl]-N^4-[2-(4-methylpiperidin-1-yl)ethyl]-1H-imidazole-4,5-dicarboxamide]
1.1	Cc1cc(C)n2ncc(C(=O)N[C@H]3CC[C@@]4(CCN(c5ccc(F)cc5Cl)C4=O)CC3)c2n1 [Example 139, N-[(trans)-2-(2-chloro-4-fluorophenyl)-1-oxo-2-azaspiro[4.5]dec-8-yl]-5,7-dimethylpyrazolo[1,5-a]pyrimidine-3-carboxamide]
6.1	O=C(N[C@H]1CC[C@@]2(CCN(c3ccc(F)cc3Cl)C2=O)CC1)c1cnc2cccnn12 [Example 138, N-[(trans)-2-(2-chloro-4-fluorophenyl)-1-oxo-2-azaspiro[4.5]dec-8-yl]imidazo[1,2-b]pyridazine-3-carboxamide]

Continued, compound first:

SMILES	IC50 [nM]
Cc1cc(C)n2ncc(C(=O)N[C@H]3CC[C@H](C(=O)Nc4ccncc4Cl)CC3)c2n1 [Example 102, N-{trans-4-[(3-chloropyridin-4-yl)carbamoyl]cyclohexyl}-5,7-dimethylpyrazolo[1,5-a]pyrimidine-3-carboxamide]	120
CC(C)(O)CNC(=O)c1nc[nH]c1C(=O)N[C@H]1CC[C@H](C(=O)Nc2cc(N3CCOCC3)ccc2Cl)CC1 [Example 94, N^5-(trans-4-{[2-chloro-5-(morpholin-4-yl)phenyl]carbamoyl}cyclohexyl)-N^4-(2-hydroxy-2-methylpropyl)-1H-imidazole-4,5-dicarboxamide]	610
CCOC(=O)c1cnc2c(C(=O)N[C@H]3CC[C@H](C(=O)Nc4ccc(F)cc4Cl)CC3)cnn2c1 [Example 106, ethyl 3-({trans-4-[(2-chloro-4-fluorophenyl)carbamoyl]cyclohexyl}carbamoyl)pyrazolo[1,5-a]pyrimidine-6-carboxylate]	400
CN1CCN(c2ccn3ncc(C(=O)N[C@H]4CC[C@H](C(=O)Nc5ccc(F)cc5Cl)CC4)c3n2)CC1 [Example 109]	3000
O=C(N[C@H]1CC[C@H](C(=O)Nc2ccncc2Cl)CC1)c1cnc2cccnn12 [Example 103, N-{trans-4-[(3-chloropyridin-4-yl)carbamoyl]cyclohexyl}imidazo[1,2-b]pyridazine-3-carboxamide]	410
CNC(=O)c1nc[nH]c1C(=O)N[C@H]1CC[C@H](C(=O)Nc2cc(OC)c(OC)cc2Cl)CC1 [Example 5, N^5-{trans-4-[(2-chloro-4,5-dimethoxyphenyl)carbamoyl]cyclohexyl}-N^4-methyl-1H-imidazole-4,5-dicarboxamide]	190
COCc1cc(C)n2ncc(C(=O)N[C@H]3CC[C@H](C(=O)Nc4c(F)cc(F)cc4Cl)CC3)c2n1 [Example 112, N-{trans-4-[(2-chloro-4,6-difluorophenyl)carbamoyl]cyclohexyl}-5-(methoxymethyl)-7-methylpyrazolo[1,5-a]pyrimidine-3-carboxamide]	190
COCC(C)NC(=O)c1nc[nH]c1C(=O)N[C@H]1CC[C@H](C(=O)Nc2cnccc2Cl)CC1 (stereo partly drawn) [Example 99, N^5-{trans-4-[(4-chloropyridin-3-yl)carbamoyl]cyclohexyl}-N^4-(1-methoxypropan-2-yl)-1H-imidazole-4,5-dicarboxamide]	51
O=C(NCCC1CC1)c1nc[nH]c1C(=O)N[C@H]1CC[C@H](C(=O)Nc2cc(N3CCOCC3)ccc2Cl)CC1 [Example 93, N^5-(trans-4-{[2-chloro-5-(morpholin-4-yl)phenyl]carbamoyl}cyclohexyl)-N^4-(2-cyclopropylethyl)-1H-imidazole-4,5-dicarboxamide]	1500
CNC(=O)c1nc[nH]c1C(=O)N[C@H]1CC[C@H](C(=O)Nc2cnccc2Cl)CC1 [Example 96, N^5-{trans-4-[(4-chloropyridin-3-yl)carbamoyl]cyclohexyl}-N^4-methyl-1H-imidazole-4,5-dicarboxamide]	22
O=C(NC12CCC(C(=O)Nc3ccc(F)cc3Cl)(CC1)CC2)c1cnn2cccnc12 [Example 117, N-{4-[(2-chloro-4-fluorophenyl)carbamoyl]bicyclo[2.2.2]oct-1-yl}pyrazolo[1,5-a]pyrimidine-3-carboxamide]	220
CNC(=O)c1nc[nH]c1C(=O)N[C@H]1CC[C@H](C(=O)Nc2ccc(F)cc2Br)CC1 [Example 7, N^5-{trans-4-[(2-bromo-4-fluorophenyl)carbamoyl]cyclohexyl}-N^4-methyl-1H-imidazole-4,5-dicarboxamide]	30
CNC(=O)c1[nH]cnc1C(=O)NC12CCC(C(=O)Nc3ccc(F)cc3Cl)(CC1)CC2 [Example 115, N^4-{4-[(2-chloro-4-fluorophenyl)carbamoyl]bicyclo[2.2.2]oct-1-yl}-N^5-methyl-1H-imidazole-4,5-dicarboxamide]	180
CNC(=O)c1nc[nH]c1C(=O)N[C@H]1CC[C@H](C(=O)Nc2ccc(F)cc2)CC1 [Example 8, N^5-{trans-4-[(4-fluorophenyl)carbamoyl]cyclohexyl}-N^4-methyl-1H-imidazole-4,5-dicarboxamide]	2100
CC(O)CNc1ccc2ncc(C(=O)N[C@H]3CC[C@H](C(=O)Nc4ccc(F)cc4Cl)CC3)n2n1 (stereo partly drawn) [Example 114, N-{trans-4-[(2-chloro-4-fluorophenyl)carbamoyl]cyclohexyl}-6-[(2-hydroxypropyl)amino]imidazo[1,2-b]pyridazine-3-carboxamide]	1600

— patent US20180148418A1, “AMIDO-SUBSTITUTED CYCLOHEXANE DERIVATIVES” (Bayer Pharma Aktiengesellschaft, priority 2015, published 2018)
